The test system of data set [1] is formalin-induced nociceptive responses in rats. The note with it: cited from earlier work.
In data set [2] the test system is jck and cpk mouse models of PKD. The note with it: cited from earlier work.
Data set [3] has as its system rat model of focal cerebral ischemia. The following applies: cited from earlier work.
The nature of data set [4]: Solubility of the acid addition salt. The format is physicochemical.
For data set [5], the target named is T1, Cdk5/p35 enzyme (Upstate) (Homo sapiens, UniProt Q00535).
T1 construct: purchased Upstate
The data set can be described thus: Alternative CDK5 assay (DELFIA, biotinylated histone H1 peptide). The following applies: Cdk5/p35, ATP, 30 minutes at room temperature, TRF read-out. The format is biochemical.
Procedure: In a 96-well polypropylene plate add 5 μl of 5× test compound (in 12.5% DMSO) per well. Prepare an assay mix of 2.5 μM biotinylated histone H1 peptide (Bachem), 2.5 mM DTT in 1× assay buffer (10× assay buffer contains 250 mM Tris-HCl pH7.5, 2.5 mM MgCl2, 0.025 Brij-35, 0.1 mg/ml BSA. Add 10 μl of assay mix per well. Prepare the Cdk5/p35 enzyme (Upstate) at 0.625 nM in 1× assay buffer with 37.5 μM ATP on ice. Add 10 μl per well to start the reaction, seal with sealing film and incubate for 30 minutes at room temperature on a plate shaker. Stop the reaction by the addition of 100 μl stop buffer (1× Blocker BSA-Pierce, 0.05% surfact-AMPS-20, 100 mM EDTA). Shake plate for 1 minute. Transfer 100 μl of the stopped reaction to a black Neutravidin coated plate. Shake at room temperature for 30 minutes. Wash plate 5× with 200 μl TBS-Tween. Add 100 μl of anti-phospho cdk1-substrate antibody (Calbiochem) at 1:1500 in 1×DELFIA assay buffer (Perkin Elmer) to each well. Shake for 1 hour at room temperature. Wash plate 5× with 200 μl TBS-Tween. Add 100 μl of Eu-labelled anti-rabbit IgG at 1:300 in 1×DELFIA assay buffer per well. Shake for 1 hour at room temperature. Wash plate 5× with 200 μl TBS-Tween. Add 100 μl DELFIA enhancement solution (Perkin Elmer) per well and incubate 5 minutes on a plate shaker at <900 rpm. Read using TRF enabled fluorimeter at 335ex/620em.

Data set [6] is described as follows: Vapour sorption/desorption analysis. The format is physicochemical. As to the method: Crystals of 4-(2,6-dichlorobenzoylamino)-1H-pyrazole-3-carboxylic acid (1-methanesulphonyl-piperidin-4-yl)-amide prepared by the recrystallisation method of Example 11 Step 8 were subjected to vapour sorption/desorption analysis in order to test for the propensity of this sample to form a hydrated state.
Approximately 20 mg of sample was placed into a wire-mesh vapour sorption balance pan and loaded into an ‘IgaSorp’ vapour sorption balance (Hiden Analytical Instruments) held at 25+/−0.1° C. The sample was then dried by maintaining a 0% humidity environment (using mass flow control apparatus) until no further weight change was recorded. Subsequently, the sample was then subjected to a ramping profile from 0-90% relative humidity (% RH) at 10% RH increments, maintaining the sample at each step until equilibration had been attained (99.5% step completion).
Upon reaching equilibration, the % RH within the apparatus was ramped to the next step and the equilibration procedure repeated. After completion of the sorption cycle, the sample was then dried using the same procedure. The weight change during the sorption/desorption cycles was then monitored, allowing for the hygroscopic nature of the sample to be determined.

For the next data set, the system named is polycystic cpk mice. The following applies: cited from earlier work.

Structures can show the parent of a compound that is named as a salt.

T1 sequence (Q00535 whole entry): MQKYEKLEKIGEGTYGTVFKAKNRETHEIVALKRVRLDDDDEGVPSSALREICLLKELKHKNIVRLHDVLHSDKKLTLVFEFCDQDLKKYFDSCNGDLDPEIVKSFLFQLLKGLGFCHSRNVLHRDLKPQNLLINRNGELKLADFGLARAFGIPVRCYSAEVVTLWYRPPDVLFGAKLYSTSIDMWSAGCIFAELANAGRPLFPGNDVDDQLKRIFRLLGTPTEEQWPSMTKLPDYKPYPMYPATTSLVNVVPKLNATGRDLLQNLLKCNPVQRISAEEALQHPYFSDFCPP
T1 sequence (Q15078 whole entry partner): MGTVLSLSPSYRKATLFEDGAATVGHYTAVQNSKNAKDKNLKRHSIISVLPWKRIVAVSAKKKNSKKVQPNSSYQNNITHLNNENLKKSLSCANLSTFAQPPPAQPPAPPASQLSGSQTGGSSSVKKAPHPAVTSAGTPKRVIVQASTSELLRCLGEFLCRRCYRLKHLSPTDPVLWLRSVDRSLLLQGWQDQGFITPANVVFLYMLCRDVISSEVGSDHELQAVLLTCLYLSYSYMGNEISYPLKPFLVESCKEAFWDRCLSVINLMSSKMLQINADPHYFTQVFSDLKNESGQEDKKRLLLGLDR

`CC[C@H](CO)Nc1nc(NCc2ccccc2)c2ncn(C(C)C)c2n1` [roscovitine]: the formalin-induced nociceptive responses result in data set [1] is “attenuate the formalin-induced nociceptive responses”. Also, the cystic disease result in data set [2] is recorded as “effective arrest of cystic disease”. For the molecule `CN1CC[C@H](c2c(O)cc(O)c3c(=O)cc(-c4ccccc4Cl)oc23)[C@H](O)C1` [flavopiridol], the neuronal death result in data set [3] is “significantly reduce neuronal death”. Broadly, the solubility is how much of the substance goes into solution per volume. Regarding `O=C(NC1CCNCC1)c1n[nH]cc1NC(=O)c1c(Cl)cccc1Cl` [methanesulphonic acid salt, 4-(2,6-dichlorobenzoylamino)-1H-pyrazole-3-carboxylic acid piperidin-4-ylamide methanesulphonate], in data set [4] (pH 4.6, aqueous buffer, buffer formed from acetic acid and sodium acetate, solution pH approximately 4.6), the solubility is ~35 mg/mL. Further, in data set [4] (water, qualitative statement), the water solubility entry is “excellent water solubility”. As a reminder, the IC50 is the concentration needed to halve the response being measured. With `CS(=O)(=O)N1CCC(NC(=O)c2n[nH]cc2NC(=O)c2c(Cl)cccc2Cl)CC1` [Example 12, 4-(2,6-dichloro-benzoylamino)-1H-pyrazole-3-carboxylic acid (1-methanesulphonyl-piperidin-4-yl)-amide], the IC50 in data set [5] was < 0.1 µM. In addition, the “weight increase upon equilibration at 90% RH” value in data set [6] (crystals, 25 °C, stepwise 0-90% relative humidity) was 0.24%. The “hygroscopicity / hydrate formation” value in data set [6] (storage in elevated humidity conditions) is “physically stable with regard to hygroscopicity”. Regarding `CC(=O)O[C@H]1C(=O)[C@@]2(C)[C@H]([C@H](OC(=O)c3ccccc3)[C@]3(O)C[C@H](OC(=O)[C@H](O)[C@@H](NC(=O)c4ccccc4)c4ccccc4)C(C)=C1C3(C)C)[C@]1(OC(C)=O)CO[C@@H]1C[C@@H]2O` [taxol], the “progression of PKD and survival” value in the data set on polycystic cpk mice was “inhibit the progression of PKD and prolongs the survival”.
